{"source": "patent US11723362B2", "about": "“Broad-spectrum synergistic antimicrobial compositions” (The United States of America, as represented by the …, priority 2019, dated 2023)", "key": {"[1]": {"test_system": "mold", "assay": "USP <51> preservative efficacy in nonionic spray cleaner base (mold)", "assay_type": "cell-based, A. brasiliensis", "conditions": "alone, 0.1% in spray cleaner base", "excerpt": "Preservative challenge testing (USP-51)."}, "[2]": {"test_system": "S. aureus ATCC 6538", "assay": "AOAC Use Dilution test", "assay_type": "cell-based, Staphylococcus aureus", "conditions": "60 carriers tested, ten minutes contact time", "method": "(§1) MICROCHEM Laboratories completed the AOAC Use dilution, semi-quantitative test method against the 3 strains of bacteria using the maximum contact time of ten minutes with three replicates from the same sample submission. For the S. aureus testing, MICROCHEM Laboratories followed ASTM E2315 method with a 10 minute exposure but only a single replicate was tested. The ASTM E2315 quantitative test method was used by MICROCHEM Laboratories to access the performance of a single replicate of the test compounds against the MS2 virus using a 10 minute contact time.\n(§2) The killing efficacy of Cuminaldehyde Guanylhydrazone (CG) in water against three bacteria was evaluated using the AOAC Use Dilution test. While a passing kill rate against Pseudomonas aeruginosa, and a close to, but just below the target kill rate, for Salmonella enterica were detected, a kill rate against Staphylococcus aureus was not achieved. The test results were the same for both concentrations tested (0.2 wt. % and 0.5 wt. %)."}, "[3]": {"test_system": "E. coli, S. aureus, P. aeruginosa, A. brasiliensis, B. cepacia, and C. albicans", "conditions": "0.2% in nonionic spray cleaner base lacking additional preservatives; 28 days", "source_text": "Preservative challenge testing (USP-51). The protocol for the preservative challenge testing followed the US Pharmacopeia Chapter 51 (USP 51). Under the USP 51 protocol, the test organisms are Candida albicans (ATCC No. 10231), Aspergillus brasiliensis (also referred to as A. niger) (ATCC No. 16404), Escherichia coli (ATCC No. 8739), Pseudomonas aeruginosa (ATCC No. 9027), and Staphylococcus aureus (ATCC No. 6538). To access the potency of a preservative in a personal care product formula, microorganisms were added separately to a sample of the product formula, such that their final concentrations were between 1.00E+05 and 1.00E+06 CFU (colony forming units)/mL of product. The inoculated personal care product formulas were incubated at specific temperatures (relative to the organism) and plated over the course of two weeks. During plating, the number of colony-forming units (CFU's) were counted to determine the number of viable microbial cells still present in the solution. Antimicrobial effectiveness is determined by logarithmic reductions in growth over time.\nThe effect of CG on mold, bacteria, and yeast were tested following the USP <51> procedure. […] For the instant examples, the criteria for passing the USP 51 preservative efficacy protocol against bacteria is a reduction of not less than 2-log 10 from the initial count at 14 days, and no increase from the 14 day count at 28 days. […]"}, "[4]": {"assay": "Stability of CG in commercial household products", "assay_type": "physicochemical", "conditions": "nonionic spray cleaners, polishes, hand soap, liquid dish soap; refrigerator (2.8° C.), room temperature (21.1° C.), oven (40° C.), 3 freeze-thaw cycles", "method": "Freeze-thaw studies were conducted using a commercial refrigerator freezer and were completed over a two week period where the samples were frozen, thawed and observed for 3 cycles. Additional samples were stored in 15 mL Falcon tubes in the refrigerator, at room temperature and in a 40° C. oven. These samples were removed and evaluated at three time points in conjunction with the freeze-thaw samples. The compositions of the household products in which CG was stable are listed below in tables 13 and 14. The “Surfactant Control” was composed as follows: 4% 1,3-propanediol, 4% alkyl polyglucoside (C8-C16), 2% ethoxylated fatty alcohol (Clariant Genapol LA 070), 90% deionized water. Cuminaldehyde Guanylhydrazone (CG) was added to several different commercial products. Stability testing was performed in refrigerator (2.8° C.), at room temperature (21.1° C.), in an oven (40° C.), and through 3 freeze-thaw cycles. It was determined that CG was stable in at least 4 different classes of household products including nonionic spray cleaners, polishes, hand soap, and liquid dish soap. […] Not intending to be theory-bound, these instabilities may be attributed mainly to carbonate, anionic surfactants, or high pH."}, "[5]": {"test_system": "P. aeruginosa ATCC 15442", "assay": "AOAC Use Dilution test", "assay_type": "cell-based, Pseudomonas aeruginosa", "conditions": "60 carriers tested, ten minutes contact time", "method": "as §1, §2"}, "[6]": {"test_system": "S. enterica ATCC 10708", "assay": "AOAC Use Dilution test", "assay_type": "cell-based, Salmonella enterica", "conditions": "60 carriers tested, ten minutes contact time", "method": "as §1, §2"}}, "data": [{"smiles": "CC(C)c1ccc(/C=N/NC(=N)N)cc1", "note": "[CG, (2E)-2-{[4-(propan-2-yl)phenyl]methylidene} hydrazine-1-carboximidamidium]", "values": [{"measurement": "log reduction of mold (not eliminated to nondetectable levels)", "setting": "[1]", "result": "< 4", "unit": "log"}, {"measurement": "Confirmed Positive carriers", "setting": "[2]; CG 0.2 wt. % in water", "result": 12}, {"measurement": "Result", "setting": "[2]; CG 0.2 wt. % in water", "result": "Fail (3)"}, {"measurement": "Confirmed Positive carriers", "setting": "[2]; CG 0.5 wt. % in water", "result": 12}, {"measurement": "Result", "setting": "[2]; CG 0.5 wt. % in water", "result": "Fail (3)"}, {"measurement": "USP 51 preservative efficacy protocol result against bacteria, yeast, and mold", "setting": "[3]", "result": "passed"}, {"measurement": "stability in household products", "setting": "[4]", "result": "stable"}, {"measurement": "Confirmed Positive carriers", "setting": "[5]; CG 0.2 wt. % in water", "result": 2}, {"measurement": "Result", "setting": "[5]; CG 0.2 wt. % in water", "result": "Pass (6)"}, {"measurement": "Confirmed Positive carriers", "setting": "[5]; CG 0.5 wt. % in water", "result": 2}, {"measurement": "Result", "setting": "[5]; CG 0.5 wt. % in water", "result": "Pass (6)"}, {"measurement": "Confirmed Positive carriers", "setting": "[6]; CG 0.2 wt. % in water", "result": 2}, {"measurement": "Result", "setting": "[6]; CG 0.2 wt. % in water", "result": "Fail (2)"}, {"measurement": "Confirmed Positive carriers", "setting": "[6]; CG 0.5 wt. % in water", "result": 2}, {"measurement": "Result", "setting": "[6]; CG 0.5 wt. % in water", "result": "Fail (2)"}]}]}
